Earlier results on one compound are cited in patent US20250179582A1, “METHODS FOR TREATING CANCER PATIENTS WITH HOMOLOGOUS RECOMBINATION DEFICIENCY BASED ON TEMPLATED INSERTIONS” (Memorial Sloan-Kettering Cancer Center, priority 2022, published 2025).

Read-outs that look alike come from different tables or passages of the source.

This data set concerns relapsed high-grade serous ovarian/endometrioid/primary peritoneal/or fallopian carcinoma. Conditions: rucaparib versus placebo.

Take `CNCc1ccc(-c2[nH]c3cc(F)cc4c3c2CCNC4=O)cc1` [rucaparib]: the “progression-free survival hazard ratio (HR)” value is listed as 0.23 (germline or somatic mutated BRCA1/2 cohort, patients with at least a partial response to platinum therapy); 0.44 (patients with high genomic LOH); 0.58 (patients with low genomic LOH).
